Residue numbers refer to the chain shown, from its start.
Experiments:
PP5 = tested on: PP5; design: method as in PMID 17200551, PMID 19025735, PMID 20331621; details: read-out: relative IC50 value against PP5; cited from earlier work
HuPP5 R225A = biological target: T1, HuPP5 R225A (Homo sapiens, UniProt P53041, R400A); test: Inhibition of recombinant HuPP5 mutant R225A (p-NPP substrate); format: biochemical; details: for IC50: recombinant HuPP5 R225A, p-NPP, mean ± S.D., three independent experiments; for ΔΔGbind-exp, R225A: ΔΔGbind = RTln(IC50 mutant/IC50 wild-type)
T1 construct: 6xHis (N); made in house; host or cells: Escherichia coli BL21(DE3)pLysS, pET43.1b
T1 sequence (P53041 1-499 R400A): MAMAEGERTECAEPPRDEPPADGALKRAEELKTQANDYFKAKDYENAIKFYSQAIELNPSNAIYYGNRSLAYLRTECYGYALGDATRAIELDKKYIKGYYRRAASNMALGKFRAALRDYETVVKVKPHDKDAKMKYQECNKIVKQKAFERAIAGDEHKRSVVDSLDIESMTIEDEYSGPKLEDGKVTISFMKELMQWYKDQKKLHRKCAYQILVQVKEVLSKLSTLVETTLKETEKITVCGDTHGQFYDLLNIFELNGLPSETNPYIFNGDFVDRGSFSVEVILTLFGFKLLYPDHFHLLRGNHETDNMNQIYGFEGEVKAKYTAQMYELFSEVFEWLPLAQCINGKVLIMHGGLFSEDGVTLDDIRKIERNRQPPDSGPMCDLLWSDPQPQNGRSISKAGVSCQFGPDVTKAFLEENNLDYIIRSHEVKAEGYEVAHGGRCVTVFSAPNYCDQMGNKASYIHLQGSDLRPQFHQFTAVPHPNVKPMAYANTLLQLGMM
Excerpt: (§1) A PCR-based site-directed mutagenesis approach was used to change Arg 100 to Ala (R100A), His 129 to Ala (H129A), and Arg 225 to Ala (R225A). All recombinant enzymes were soluble, expressed in E. coli and purified to homogeneity (>90% pure) (Figure S9). […] However, their inhibitory activity was suppressed against the three individually site-directed mutagenesis HuPP5: R100A, H129A, and R225A (Table S7). H129A appears to be most unfavorable to the binding of these inhibitors due to the highest IC50 values (>10 mM). […]
(§2) Site-directed mutagenesis. The sequence encoding the ORF of Human PP5 (HuPP5) was isolated from the liver cancer cell line SMMC-7721 by PCR using primers that introduced a Nde I site and 6xHis tag at the forward one, and a Xho I site at the reverse one. The PCR products were cloned into pCR2.1 (Invitrogen, Carlsbad, CA, USA) and transformed into DH5α (TaKaRa, Dalian, China) and then sequenced (AuGCT, Inc., Beijing, China). The mutants were generated using the QuikChange® site-directed mutagenesis kit (Stratagene, La Jolla, CA, USA) following the instruction manual. The mutagenic primers were designed based on the sequence of wild-type […]
(§3) The mutants were sequenced to confirm the presence of the desired mutations and the lack of undesired mutations.
(§4) Protein expression and purification. The wild-type and mutants HuPP5 were then cloned into the corresponding sites of pET43.1b (Novagen, Madison, WI, USA) and transformed into Escherichia coli BL21(DE3)pLysS (Novagen, Madison, WI, USA). Proteins were expressed in LB (also on this page, place not known: scan ning. T he Cβ -H Cβ -Cγ. energ y tantbinding mu wildtypeG G G −−ΔΔ =Δ −Δ tantbinding muG −Δ binding wildtypeG −Δ binding re spectively. bindingGΔΔ binding (Invitrogen , USA ) site -directed (Stratagene , USA ) wild -type S 5. purification . s ites (Novagen , USA )) […]
(§5) (Luria-Bertani) broth (containing 2 mM MnCl2, 100 μg/ml ampicillin and 34 μg/ml chloramphenicol) and induced with 0.1 mM IPTG (isopropyl β-thiogalactoside) for 24 h at 18 ℃.
(§6) Cells were harvested by centrifugation (8,000 g for 10 min at 4 ℃) and were lysed by sonication in buffer A (20 mM Tris-HCl, pH=8.0, 4 mM MnCl2, 300 mM NaCl) containing 20 mM imidazole, 0.1% β-mercaptoethanol, 1.0 mg/ml lysozyme and 1 mM PMSF. After centrifugation for 20 min at 20,000 g at 4 ℃, the supernatant was loaded to a buffer A pre-equilibrated Ni-NTA affinity column (Transgen, Beijing, China) to bind the 6xHis tagged protein. The reduction of non-specific interactions between the extract proteins and the matrix was achieved by washing the Ni-NTA resins with buffer B (20 mM Tris-HCl, pH=8.0, 300 mM NaCl, 1 mM EGTA, 0.1% β-mercaptoethanol, 4 mM MnCl2) containing 20 mM imidazole. Elution was then conducted using 150 mM imidazole in buffer B. The eluted HuPP5 fractions were pooled and dialyzed against buffer C (buffer B + 50% glycerol) overnight. Dialyzed samples were subjected to 12% SDS-PAGE and stained with Coomassie blue. Protein concentrations were determined using a BCA Protein Assay Kit (Pierce, Thermo Scientific, Rockford, IL, USA).
(§7) Enzymatic assays and inhibition studies. Phosphatase activity was measured using p-NPP (p-nitrophenyl phosphate) as substrate. Assays were performed in a 200 μL reaction containing 500 ng protein and assay buffer (20 mM p-NPP in 20 mM Tris (pH 7.4), 100 μM arachidonic acid, 1 mM EGTA, 0.1% β-mercaptoethanol and 0.1% ethanol). The reaction was initiated by adding the p-NPP and incubated at 35 ℃ for 10 min. Control reactions were assayed without enzyme.
(§8) Assays were terminated by addition of 200 μL of 5 N NaOH. Sample absorbance was measured at A410 using the TECANTM Infinite® 200 PRO multimode micro-plate reader after subtracting the appropriate background. Kinetic parameters were determined by using the Michaelis-Menten […]
(§9) plot analysis of data obtained under the assay conditions as mentioned above with the addition of […]

HuPP5 R100A = biological target: T2, HuPP5 R100A (Homo sapiens, UniProt P53041, R275A); test: Inhibition of recombinant HuPP5 mutant R100A (p-NPP substrate); format: biochemical; details: for IC50: recombinant HuPP5 R100A, p-NPP, mean ± S.D., three independent experiments; for ΔΔGbind-exp, R100A: ΔΔGbind = RTln(IC50 mutant/IC50 wild-type)
T2 construct: 6xHis (N); made in house; host or cells: Escherichia coli BL21(DE3)pLysS, pET43.1b
T2 sequence (P53041 1-499 R275A): T1 sequence (P53041 1-499 R400A) with R275A, A400R
Excerpt: as §1, §2, §3, §4, §5, §6, §7, §8, §9

HuPP5 H129A = biological target: T3, HuPP5 H129A (Homo sapiens, UniProt P53041, H304A); test: Inhibition of recombinant HuPP5 mutant H129A (p-NPP substrate); format: biochemical; details: for IC50: recombinant HuPP5 H129A, p-NPP; for ΔΔGbind-exp, H129A: ΔΔGbind = RTln(IC50 mutant/IC50 wild-type)
T3 construct: 6xHis (N); made in house; host or cells: Escherichia coli BL21(DE3)pLysS, pET43.1b
T3 sequence (P53041 1-499 H304A): T1 sequence (P53041 1-499 R400A) with H304A, A400R
Excerpt: as §1, §2, §3, §4, §5, §6, §7, §8, §9

[1] = biological target: T4, recombinant wild-type HuPP5 (Homo sapiens, UniProt P53041); test: Inhibition of recombinant wild-type HuPP5 phosphatase activity (p-NPP substrate); format: biochemical; details: mean ± S.D., three independent experiments
T4 construct: 6xHis (N); made in house; host or cells: Escherichia coli BL21(DE3)pLysS, pET43.1b
T4 sequence (P53041 1-499): T1 sequence (P53041 1-499 R400A) with A400R
Description: The structures for the manganese-containing systems (Figure S2) were taken from the Research Collaboration for Structural Bioinformatics protein database (RCSB Protein Data Bank, PDB ID: 3H63; 3H61; 3H64)[22], and all the structures were visualized using pymol 1.3 r1 edu. Manganese-related force field parameters were determined using Seminario’s method. Atomic single charge was calculated using the restrained electrostatic potential (RESP) fitting protocol. The Quantum Mechanics (QM) and Molecular Mechanics (MM) vibrational frequencies were compared to check the quality of the force field parameters. We performed three individual 50 ns MD at different seeds for each system. All MD simulations were performed with the AMBER12 package. All MD results were analyzed with the Ambertools13 package based on three individual 50 ns MD trajectories, and the data were averaged. Molecular Mechanics-Poisson-Boltzmann Surface Area (MM-PBSA)[32] calculations were performed on 1000 snapshots exacted from 40 ~ 50 ns production trajectories with a time interval of 10 ps to estimate the binding free energy. Since only the catalytic domain was used in the simulations, the starting point in our constructed structure corresponds to the 176th residue in the reference structure. […] The IC50 values of the three compounds against all HuPP5 proteins were calculated from the dose-dependent inhibition assay. […]
Cells were harvested by centrifugation (8,000 g for 10 min at 4 ℃) and were lysed by sonication in buffer A (20 mM Tris-HCl, pH=8.0, 4 mM MnCl2, 300 mM NaCl) containing 20 mM imidazole, 0.1% β-mercaptoethanol, 1.0 mg/ml lysozyme and 1 mM PMSF. […] Protein concentrations were determined using a BCA Protein Assay Kit (Pierce, Thermo Scientific, Rockford, IL, USA).
Enzymatic assays and inhibition studies. Phosphatase activity was measured using p-NPP (p-nitrophenyl phosphate) as substrate. […]

SMILES	IC50 (PP5)	IC50 (HuPP5 R225A)	ΔΔGbind-exp, R225A (HuPP5 R225A)	IC50 (HuPP5 R100A)	ΔΔGbind-exp, R100A (HuPP5 R100A)	IC50 (HuPP5 H129A)	ΔΔGbind-exp, H129A (HuPP5 H129A)	IC50 [1]	IC50 on R225A higher than that of cantharidin (HuPP5 R225A; ratio of IC50 values on HuPP5 R225A, versus cantharidin)	IC50 on R225A higher than that of norcantharidin (HuPP5 R225A; ratio of IC50 values on HuPP5 R225A, versus norcantharidin)
C[C@@]12C(=O)OC(=O)[C@]1(C)[C@H]1CC[C@@H]2O1 [Cantharidin, cantharidin]	0.6 µM	21.9 ± 1.12 µM	2.03 kcal/mol	4.05 ± 0.34 µM	0.97 kcal/mol	> 10000 µM	>5.74 kcal/mol	0.82 µM	–	–
O=C(O)[C@@H]1[C@H](C(=O)O)[C@H]2CC[C@@H]1O2 [Endothall, endothall]	–	1060 ± 63.7 µM	3.46 kcal/mol	18.4 ± 0.39 µM	0.99 kcal/mol	> 10000 µM	>4.83 kcal/mol	3.64 µM	48.54 fold	6.47 fold
O=C1OC(=O)[C@H]2[C@@H]1[C@@H]1CC[C@H]2O1 [Norcantharidin, norcantharidin]	–	164 ± 9.84 µM	2.24 kcal/mol	17.8 ± 1.44 µM	0.88 kcal/mol	> 10000 µM	>4.75 kcal/mol	4.18 µM	–	–

Source: publication PMC4507179, “Insights into the key interactions between human protein phosphatase 5 and cantharidin using molecular dynamics and site-directed mutagenesis bioassays” (Scientific Reports, 2015)
